# Assay results taken from patent publication US20260078239A1, “USE OF AN ANTIOXIDANT FOR REDUCING AND/OR PREVENTING THE TOXICITY OF A RUBBER COMPOSITION” (NYCO, priority 2022, published 2026).
# Columns and labels:
# [1] = hazard statements in words; cited from earlier work
# whole adult planarians = conditions: 0.22-22 mg/L, 12 days, control points at 7 and 12 days; for Concentration above which behavioral problems potentially linked to cognitive problems in the planarian are observed: adhesion, speed of movement, rest, phototaxis, scrunching
SMILES,"Toxicity (confirmed toxicity, ECHA substance information) [1]","Concentration above which significant mortality of planarian is observed according to Zhang et al., Neurotoxicology and Teratology, 2019 (whole adult planarians) [mg/L]",Concentration above which behavioral problems potentially linked to cognitive problems in the planarian are observed (whole adult planarians) [ng/mL]
"c1ccc(Nc2ccc(NC3CCCCC3)cc2)cc1 [CPPD, N-cyclohexyl-N′-phenyl-p-phenylenediamine]",Is toxic to aquatic life with long-term,,
"c1ccc(Nc2ccc(Nc3ccccc3)cc2)cc1 [DPPD, N,N′-diphenyl-p-phenylenediamine]",Is harmful to aquatic life with long-term,,
"CC(C)(C)c1cc(Cc2cc(C(C)(C)C)c(O)c(C(C)(C)C)c2)cc(C(C)(C)C)c1O [Example 3, 4,4′-Methylene-bis-(2,6-di-tert-butylphenol)]",Under evaluation as an endocrine,,
"c1ccc(Nc2cccc3ccccc23)cc1 [Example 19, N-phenylnaphthalene-1-amine]",,6.9,2200 to 3900
"CC(C)CC(C)Nc1ccc(Nc2ccccc2)cc1 (centres unmarked) [Example 22, N-(1,3-Dimethylbutyl)-N′-phenyl-p-phenylenediamine]",Harms fertility or has a negative impact,4.8,1500
